Patent US20100267561A1, “HERBICIDAL PYRIDAZINONE DERIVATIVES” (priority 2007, published 2010)

Tests used:
Assay type in all cases: in vivo
[1] = system: Italian ryegrass (Lolium multiflorum); assay: Test B pre-/postemergence plant response
Procedure, shortened: (§1)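 Visual scoring from 0 (no effect) to 100 (complete control) against untreated controls was done 13 to 15 days after greenhouse treatment. Chemicals were formulated in a surfactant-containing non-phytotoxic solvent and applied to soil preemergence or to 1- to 4-leaf (2-18 cm) plants postemergence.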

[2] = system: blackgrass (Alopecurus myosuroides); assay: Test B pre-/postemergence plant response; details: for Blackgrass plant response rating: 8 g ai/ha
Procedure, shortened: as §1

[3] = system: catchweed bedstraw (Galium aparine); assay: Test B pre-/postemergence plant response; details: Preemergence
Procedure, shortened: as §1

[4] = system: common (oilseed) sunflower (Helianthus annuus); assay: Test B pre-/postemergence plant response; details: Preemergence
Procedure, shortened: as §1

[5] = system: common ragweed (Ambrosia elation); assay: Test B pre-/postemergence plant response
Procedure, shortened: as §1

[6] = system: downy bromegrass (Bromus tectorum); assay: Test B pre-/postemergence plant response; details: for Bromegrass, Downy plant response rating: 8 g ai/ha
Procedure, shortened: as §1

[7] = system: eastern black (E.B.) nightshade (Solanum ptycanthum); assay: Test B pre-/postemergence plant response; details: Preemergence
Procedure, shortened: as §1

[8] = system: johnsongrass (Sorghum halepense); assay: Test B pre-/postemergence plant response
Procedure, shortened: as §1

[9] = system: large crabgrass (Digitaria sanguinalis); assay: Test B pre-/postemergence plant response
Procedure, shortened: as §1

[10] = system: morningglory (Ipomoea coccinea); assay: Test B pre-/postemergence plant response
Procedure, shortened: as §1

[11] = system: pigweed (Amaranthus retroflexus); assay: Test B pre-/postemergence plant response
Procedure, shortened: as §1

wild oat (Avena fatua) = assay: Test B pre-/postemergence plant response
Procedure, shortened: as §1

[12] = system: barnyardgrass (Echinochloa crus-galli); assay: Test B flooded paddy test plant response
Procedure, shortened: (§2)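 Rice, umbrella sedge, ducksalad and barnyardgrass at 2-leaf stage; pots flooded to 3 cm, compounds applied into paddy water, depth held throughout. Greenhouse 13 to 15 days, then visual rating vs untreated controls on 0–100 scale (0 no effect, 100 complete control); dash means no test result.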

rice (Oryza sativa) = assay: Test B flooded paddy test plant response
Procedure, shortened: as §2

[13] = Preemergence, 31 g ai/ha, scale 0 to 100 (0 no effect, 100 complete control)
[14] = Preemergence, 62 g ai/ha, scale 0 to 100
[15] = Preemergence, 8 g ai/ha, scale 0 to 100
[16] = Preemergence, 16 g ai/ha, scale 0 to 100
[17] = Preemergence, 16 g ai/ha, scale 0 to 100 (0 no effect, 100 complete control)
[18] = Preemergence, 31 g ai/ha, 0 to 100 scale, 0 no effect, 100 complete control
[19] = 31 g ai/ha, scale 0 to 100 (0 no effect, 100 complete control)
[20] = Flood (flooded paddy test), 62 g ai/ha, scale 0 to 100, 0 no effect, 100 complete control
[21] = Flood (flooded paddy test), 125 g ai/ha, scale 0 to 100, 0 no effect, 100 complete control
[22] = Flood (flooded paddy test), 250 g ai/ha, scale 0 to 100, 0 no effect, 100 complete control
[23] = Flood, 31 g ai/ha, scale 0 to 100
[24] = 8 g ai/ha, postemergence, 0-100 scale
[25] = Postemergence, 16 g ai/ha, scale 0 to 100
[26] = Postemergence, 31 g ai/ha, scale 0 to 100
[27] = Postemergence, 62 g ai/ha, scale 0 to 100, 0 no effect, 100 complete control
[28] = Preemergence, 62 g ai/ha, 0 to 100 scale, 0 no effect, 100 complete control
[29] = 62 g ai/ha, 0 to 100 scale, 0 no effect, 100 complete control

SMILES: Cc1cc(-c2ccc(Cl)cc2)nn1-c1c(OS(=O)(=O)c2ccccc2[N+](=O)[O-])cnn(C)c1=O [Compound 51]
- Plant response rating, Ryegrass, Italian [1, 13]: 100
- Plant response rating, Ryegrass, Italian [1, 14]: 100
- Ryegrass, Italian plant response rating [1, 15]: 100
- Ryegrass, Italian plant response rating [1, 16]: 100
- Plant response rating, Blackgrass [2, 17]: 98
- Plant response rating, Blackgrass [2, 18]: 98
- Plant response rating, Blackgrass [2, 14]: 100
- Blackgrass plant response rating ([2]; Preemergence, scale 0 to 100): 50
- Plant response rating, Galium ([3]; 31 g ai/ha, 0 to 100 scale, 0 no effect, 100 complete control): 0
- Plant response rating, Galium ([3]; 62 g ai/ha, scale 0 to 100): 0
- Galium plant response rating ([3]; 8 g ai/ha, scale 0 to 100): 0
- Galium plant response rating ([3]; 16 g ai/ha, scale 0 to 100): 0
- Plant response rating, Sunflower [4, 19]: 0
- Plant response rating, Sunflower ([4]; 62 g ai/ha, scale 0 to 100): 0
- Sunflower plant response rating ([4]; 8 g ai/ha, scale 0 to 100): 0
- Sunflower plant response rating ([4]; 16 g ai/ha, scale 0 to 100): 0
- Plant response rating, Ragweed [5, 13]: 0
- Plant response rating, Ragweed [5, 14]: 0
- Ragweed plant response rating [5, 15]: 0
- Ragweed plant response rating [5, 16]: 0
- Plant response rating, Bromegrass, Downy [6, 17]: 0
- Plant response rating, Bromegrass, Downy [6, 18]: 45
- Plant response rating, Bromegrass, Downy [6, 14]: 85
- Bromegrass, Downy plant response rating ([6]; Preemergence, scale 0 to 100): 0
- Plant response rating, Nightshade, E. B. [7, 19]: 0
- Plant response rating, Nightshade, E. B. ([7]; 62 g ai/ha, scale 0 to 100): 0
- Plant response rating, Johnsongrass [8, 18]: 70
- Plant response rating, Johnsongrass [8, 14]: 80
- Johnsongrass plant response rating [8, 16]: 50
- Plant response rating, Crabgrass, Large [9, 18]: 75
- Plant response rating, Crabgrass, Large [9, 14]: 90
- Crabgrass, Large plant response rating [9, 15]: 0
- Crabgrass, Large plant response rating [9, 16]: 20
- Plant response rating, Morningglory [10, 13]: 0
- Plant response rating, Morningglory [10, 14]: 0
- Morningglory plant response rating [10, 15]: 0
- Morningglory plant response rating [10, 16]: 0
- Plant response rating, Pigweed [11, 13]: 0
- Plant response rating, Pigweed [11, 14]: 0
- Pigweed plant response rating [11, 15]: 0
- Pigweed plant response rating [11, 16]: 0
- Plant response rating, Oat, Wild (wild oat (Avena fatua); [13]): 80
- Plant response rating, Oat, Wild (wild oat (Avena fatua); [14]): 90
- Oat, Wild plant response rating (wild oat (Avena fatua); [15]): 0
- Oat, Wild plant response rating (wild oat (Avena fatua); [16]): 10
- Plant response rating, Barnyardgrass [12, 20]: 0
- Plant response rating, Barnyardgrass [12, 21]: 10
- Plant response rating, Barnyardgrass [12, 22]: 30
- Plant response rating, Barnyardgrass [12, 23]: 0
- Plant response rating, Rice (rice (Oryza sativa); [20]): 0
- Plant response rating, Rice (rice (Oryza sativa); [21]): 0
- Plant response rating, Rice (rice (Oryza sativa); [22]): 0
- Plant response rating, Rice (rice (Oryza sativa); [23]): 0

SMILES: Cc1cc(-c2ccc(Cl)cc2)nn1-c1c(OC(=O)OCC(C)C)cnn(C)c1=O [Compound 57]
- Ryegrass, Italian plant response rating [1, 24]: 80
- Plant response rating, Ryegrass, Italian [1, 25]: 95
- Plant response rating, Ryegrass, Italian [1, 26]: 95
- Plant response rating, Ryegrass, Italian [1, 27]: 95
- Plant response rating, Ryegrass, Italian [1, 13]: 95
- Plant response rating, Ryegrass, Italian [1, 28]: 100
- Ryegrass, Italian plant response rating [1, 15]: 0
- Ryegrass, Italian plant response rating [1, 16]: 70
- Blackgrass plant response rating ([2]; postemergence, 0-100 scale): 40
- Plant response rating, Blackgrass [2, 25]: 80
- Plant response rating, Blackgrass [2, 26]: 80
- Plant response rating, Blackgrass [2, 27]: 95
- Plant response rating, Blackgrass [2, 17]: 100
- Plant response rating, Blackgrass [2, 13]: 100
- Plant response rating, Blackgrass [2, 28]: 100
- Blackgrass plant response rating ([2]; Preemergence, scale 0 to 100): 40
- Plant response rating, Galium [3, 19]: 0
- Plant response rating, Galium [3, 29]: 0
- Galium plant response rating ([3]; 8 g ai/ha, scale 0 to 100): 0
- Galium plant response rating ([3]; 16 g ai/ha, scale 0 to 100): 0
- Plant response rating, Sunflower [4, 19]: 0
- Plant response rating, Sunflower [4, 29]: 0
- Sunflower plant response rating ([4]; 8 g ai/ha, scale 0 to 100): 0
- Sunflower plant response rating ([4]; 16 g ai/ha, scale 0 to 100): 0
- Ragweed plant response rating [5, 24]: 0
- Plant response rating, Ragweed [5, 25]: 0
- Plant response rating, Ragweed [5, 26]: 0
- Plant response rating, Ragweed [5, 27]: 0
- Plant response rating, Ragweed [5, 13]: 0
- Plant response rating, Ragweed [5, 28]: 0
- Ragweed plant response rating [5, 15]: 0
- Ragweed plant response rating [5, 16]: 0
- Bromegrass, Downy plant response rating ([6]; postemergence, 0-100 scale): 0
- Plant response rating, Bromegrass, Downy [6, 25]: 20
- Plant response rating, Bromegrass, Downy [6, 26]: 50
- Plant response rating, Bromegrass, Downy [6, 27]: 60
- Plant response rating, Bromegrass, Downy [6, 17]: 0
- Plant response rating, Bromegrass, Downy [6, 13]: 65
- Plant response rating, Bromegrass, Downy [6, 28]: 70
- Bromegrass, Downy plant response rating ([6]; Preemergence, scale 0 to 100): 0
- Plant response rating, Nightshade, E. B. [7, 19]: 0
- Plant response rating, Nightshade, E. B. [7, 29]: 0
- Nightshade, E. B. plant response rating ([7]; 8 g ai/ha, scale 0 to 100): 0
- Nightshade, E. B. plant response rating ([7]; 16 g ai/ha, scale 0 to 100): 0
- Johnsongrass plant response rating [8, 24]: 15
- Plant response rating, Johnsongrass [8, 25]: 65
- Plant response rating, Johnsongrass [8, 26]: 90
- Plant response rating, Johnsongrass [8, 27]: 100
- Plant response rating, Johnsongrass [8, 13]: 90
- Plant response rating, Johnsongrass [8, 28]: 100
- Johnsongrass plant response rating [8, 15]: 65
- Johnsongrass plant response rating [8, 16]: 90
- Crabgrass, Large plant response rating [9, 24]: 75
- Plant response rating, Crabgrass, Large [9, 25]: 95
- Plant response rating, Crabgrass, Large [9, 26]: 98
- Plant response rating, Crabgrass, Large [9, 27]: 100
- Plant response rating, Crabgrass, Large [9, 13]: 98
- Plant response rating, Crabgrass, Large [9, 28]: 100
- Crabgrass, Large plant response rating [9, 15]: 0
- Crabgrass, Large plant response rating [9, 16]: 0
- Morningglory plant response rating [10, 24]: 0
- Plant response rating, Morningglory [10, 25]: 0
- Plant response rating, Morningglory [10, 26]: 0
- Plant response rating, Morningglory [10, 27]: 0
- Plant response rating, Morningglory [10, 13]: 0
- Plant response rating, Morningglory [10, 28]: 0
- Morningglory plant response rating [10, 15]: 0
- Morningglory plant response rating [10, 16]: 0
- Pigweed plant response rating [11, 24]: 0
- Plant response rating, Pigweed [11, 25]: 0
- Plant response rating, Pigweed [11, 26]: 0
- Plant response rating, Pigweed [11, 27]: 0
- Plant response rating, Pigweed [11, 13]: 0
- Plant response rating, Pigweed [11, 28]: 0
- Pigweed plant response rating [11, 15]: 0
- Pigweed plant response rating [11, 16]: 0
- Oat, Wild plant response rating (wild oat (Avena fatua); [24]): 85
- Plant response rating, Oat, Wild (wild oat (Avena fatua); [25]): 85
- Plant response rating, Oat, Wild (wild oat (Avena fatua); [26]): 95
- Plant response rating, Oat, Wild (wild oat (Avena fatua); [27]): 98
- Plant response rating, Oat, Wild (wild oat (Avena fatua); [13]): 70
- Plant response rating, Oat, Wild (wild oat (Avena fatua); [28]): 80
- Oat, Wild plant response rating (wild oat (Avena fatua); [15]): 0
- Oat, Wild plant response rating (wild oat (Avena fatua); [16]): 60
- Plant response rating, Barnyardgrass [12, 20]: 0
- Plant response rating, Barnyardgrass [12, 21]: 0
- Plant response rating, Barnyardgrass [12, 22]: 0
- Plant response rating, Barnyardgrass [12, 23]: 0
- Plant response rating, Rice (rice (Oryza sativa); [20]): 0
- Plant response rating, Rice (rice (Oryza sativa); [21]): 10
- Plant response rating, Rice (rice (Oryza sativa); [22]): 15
- Plant response rating, Rice (rice (Oryza sativa); [23]): 0
